Experiments:
Assay in all cases: relative viability (nuclei count vs DMSO), 5 days (fraction); higher = more cells survive
[1] = compound: O=c1[nH]cc(F)c(=O)[nH]1 [5-Fluorouracil] + COc1cc2c(Oc3ccc(NC(=O)C4(C(=O)Nc5ccc(F)cc5)CC4)cc3F)ccnc2cc1OCCCN1CCOCC1 [Foretinib] (partner 0.25 µM)
Method in brief: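 Five library-drug doses in √10 steps were combined with a fixed anchor-drug dose, or a single drug was given alone, by pin tool to lung cancer cell lines in 1536-well plates the day after seeding. Nuclei were stained and counted after 5 days. Relative viability is the nuclei count in treated wells over that in vehicle wells, taken as the median of duplicate plates.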

[2] = compound: CC1=C(CC(=O)O)c2cc(F)ccc2/C1=C\c1ccc([S+](C)[O-])cc1 [Sulindac]
Method in brief: (§1)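 Cells of lung cancer lines were placed in 1536-well plates and kept overnight at 37 °C. Pinning then delivered five library-drug doses (not always all listed), spaced by √10, onto plates anchored with vehicle, and the cells were left 5 days without changing medium. One step fixed, permeabilised and stained them with Hoechst, and MetaXpress counted nuclei in 4× images. Viability, as a median over plates, is treated-well nuclei divided by vehicle-well nuclei, with acceptance only at control CV below 25% and at least one doubling.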

[3] = compound: CN[C@@H]1C[C@H]2O[C@@](C)([C@@H]1OC)n1c3ccccc3c3c4c(c5c6ccccc6n2c5c31)C(=O)NC4 [Staurosporine]
Method in brief: as §1

[4] = compound: O=c1[nH]cc(F)c(=O)[nH]1 [5-Fluorouracil]
Method in brief: as §1

| Cell Line | relative viability ([1]; first compound 0.02 µM) | relative viability ([1]; first compound 0.2 µM) | relative viability ([1]; first compound 0.6325 µM) | relative viability ([1]; first compound 2 µM) | relative viability ([2]; 0.08 µM) | relative viability ([2]; 0.253 µM) | relative viability ([2]; 0.8 µM) | relative viability ([2]; 2.53 µM) | relative viability ([2]; 8 µM) | relative viability ([3]; 0.005 µM) | relative viability ([3]; 0.01581 µM) | relative viability ([3]; 0.05 µM) | relative viability ([3]; 0.1581 µM) | relative viability ([3]; 0.5 µM) | relative viability ([4]; 0.02 µM) | relative viability ([4]; 0.2 µM) | relative viability ([4]; 0.6325 µM) | relative viability ([4]; 2 µM) |
| --- | --- | --- | --- | --- | --- | --- | --- | --- | --- | --- | --- | --- | --- | --- | --- | --- | --- | --- |
| NCI-H2342 | 0.961 | 1 | 0.885 | 0.786 | 0.912 | 0.946 | 0.843 | 0.99 | 0.99 | 1.09 | 0.652 | 0.525 | 0.461 | 0.36 | 0.955 | 1.02 | 0.894 | 0.783 |
| LCLC-97TM1 | 0.941 | 0.989 | 0.941 | 0.671 | 1.05 | 1.04 | 0.925 | 0.813 | 1.17 | 1.02 | 0.282 | 0.27 | 0.265 | 0.212 | 0.988 | 1.07 | 0.729 | 0.533 |
| NCI-H1299 | 1.14 | 1.12 | 1.08 | 0.908 | 1.13 | 1.09 | 0.908 | 1.05 | 1.08 | 0.815 | 0.491 | 0.284 | 0.207 | 0.137 | 1.1 | 1.05 | 0.955 | 0.703 |
| NCI-H322M | 0.976 | 0.84 | 0.749 | 0.446 | 0.951 | 0.921 | 0.869 | 0.903 | 0.989 | 1.13 | 0.491 | 0.58 | 0.387 | 0.344 | 0.954 | 0.923 | 0.791 | 0.651 |
| NCI-H1395 | 0.827 | 1.14 | 1.05 | 0.987 | 1.11 | 0.968 | 0.938 | 0.804 | 1.14 | 0.609 | 0.364 | 0.488 | 0.331 | 0.253 | 0.899 | 1.03 | 0.937 | 0.826 |
| NCI-H2023 | 0.757 | 0.243 | 0.159 | 0.0994 | 1.39 | 1.05 | 0.744 | 1.01 | 1.13 | 0.471 | 0.289 | 0.178 | 0.0889 | 0.0533 | 0.849 | 0.227 | 0.133 | 0.0914 |
| NCI-H1651 | 0.797 | 0.835 | 0.537 | 0.509 | 1.04 | 1.04 | 0.771 | 1.01 | 1.02 | 1.02 | 0.751 | 0.548 | 0.357 | 0.285 | 1.04 | 0.896 | 0.504 | 0.458 |
| HARA | 0.884 | 0.855 | 0.875 | 0.713 | 1.1 | 1.01 | 0.899 | 0.979 | 1.11 | 0.696 | 0.387 | 0.36 | 0.219 | 0.108 | 1.03 | 1.33 | 1 | 0.573 |
| NCI-H1944 | 0.834 | 0.702 | 0.314 | 0.184 | 0.997 | 1.03 | 0.908 | 0.904 | 1.11 | 0.983 | 0.699 | 0.567 | 0.353 | 0.246 | 0.91 | 0.905 | 0.293 | 0.195 |
| NCI-H2405 | 1 | 1.13 | 1.01 | 1.02 | 1.05 | 1.09 | 0.958 | 0.944 | 1.16 | – | 0.209 | 0.158 | 0.13 | 0.118 | 1.01 | 1.17 | 0.956 | 0.75 |
| 201T | 1.18 | 0.509 | 0.211 | 0.176 | 1.02 | 1 | 1 | 0.977 | 1.09 | 0.968 | 0.564 | 0.854 | 0.563 | 0.279 | 0.997 | 0.774 | 0.345 | 0.335 |
| RERF-LC-KJ | 0.901 | 0.938 | 0.831 | 0.823 | 1.09 | 1.09 | 0.814 | 1.06 | 1.02 | 0.95 | 0.682 | 0.501 | 0.237 | 0.211 | 1.05 | 0.912 | 0.975 | 0.828 |
| Calu-6 | 0.853 | 0.941 | 0.871 | 0.491 | 1.11 | 1.03 | 0.835 | 1.04 | 1.22 | 0.912 | 0.553 | 0.41 | 0.126 | 0.0704 | 1.07 | 1.04 | 0.872 | 0.508 |
| NCI-H1734 | 0.859 | 0.881 | 0.756 | 0.46 | 1.17 | 1 | 0.787 | 0.991 | 1.07 | 0.899 | 0.375 | 0.291 | 0.151 | 0.113 | 0.93 | 1.08 | 0.859 | 0.461 |
| NCI-H1650 | 0.963 | 1.09 | 0.776 | 0.37 | 0.851 | 1.1 | 0.732 | 0.942 | 1.01 | 0.684 | 0.372 | 0.314 | 0.15 | 0.0851 | 0.814 | 0.878 | 0.564 | 0.343 |
| NCI-H1648 | – | – | – | – | 0.953 | 0.793 | 0.561 | 0.923 | 0.942 | 0.807 | 0.281 | 0.244 | 0.324 | 0.274 | 0.922 | 0.871 | 0.56 | 0.354 |
| HCC-44 | – | – | – | – | 0.986 | 1.01 | 1.02 | 0.935 | 1.04 | 1.01 | 0.384 | 0.404 | 0.228 | 0.14 | 1.05 | 0.941 | 0.55 | 0.349 |
| NCI-H522 | – | – | – | – | 0.911 | 1.19 | 0.834 | 0.912 | 1.14 | 1 | 0.686 | 0.782 | 0.501 | 0.437 | 1.03 | 1 | 0.83 | 0.855 |
| NCI-H1792 | – | – | – | – | 1.19 | 1.08 | – | 1.07 | 1.09 | 0.536 | 0.251 | 0.235 | 0.173 | 0.177 | 0.975 | 0.851 | 0.278 | 0.344 |

— the supplement of paper PMC10307832
